Reference: publication PMC7251097, “Aspartate/asparagine-β-hydroxylase: a high-throughput mass spectrometric assay for discovery of small molecule inhibitors” (Scientific Reports, 2020)
Where “and” joins values, the source holds several entries; their conditions need not be identical. Identical values can stand only once. Like-named read-outs stand apart in the source and are kept apart here.

Tests used:
[1] = test system: KDM4E; conditions: read-out: IC50 metal ion, KDM4E, cited from earlier work
[2] = target: FIH; conditions: read-out: IC50 metal ion, FIH [μM] (Ki values are shown), cited from earlier work
[3] = test system: TauD; conditions: read-out: IC50 metal ion, TauD; cited from earlier work
[4] = target: T1, His6-AspH315–758 (human aspartate/asparagine-β-hydroxylase, AspH) (Homo sapiens, UniProt Q12797); test: SPE-MS AspH inhibition assay (LOPAC screen at fixed 20 μM and IC50 dose-response), hydroxylation of cyclic peptide hFX-CP101–119; format: biochemical; conditions: for Plate 3 (% conversion): conversion of substrate peptide
T1 construct: N-Terminally His6-tagged human AspH315–758 (His6-AspH315–758) was produced in E. coli BL21 (DE3) cells; made in house; host or cells: E. coli BL21 (DE3), pET-28a(+) vector
T1 sequence (Q12797 315-758): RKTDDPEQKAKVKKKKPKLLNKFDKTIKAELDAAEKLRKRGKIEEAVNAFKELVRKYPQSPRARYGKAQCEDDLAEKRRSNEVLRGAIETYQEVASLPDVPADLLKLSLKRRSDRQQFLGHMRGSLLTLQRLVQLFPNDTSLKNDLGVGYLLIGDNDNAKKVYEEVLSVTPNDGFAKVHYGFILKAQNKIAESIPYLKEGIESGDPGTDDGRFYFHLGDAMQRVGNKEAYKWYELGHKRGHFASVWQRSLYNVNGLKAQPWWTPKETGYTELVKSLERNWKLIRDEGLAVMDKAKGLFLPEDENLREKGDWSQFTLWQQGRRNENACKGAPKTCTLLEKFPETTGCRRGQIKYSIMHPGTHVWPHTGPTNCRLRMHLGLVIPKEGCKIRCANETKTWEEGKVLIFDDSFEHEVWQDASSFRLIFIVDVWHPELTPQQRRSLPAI

[5] = test system: PHD2; conditions: read-out: IC50 metal ion, PHD2, cited from earlier work
[6] = test system: KDM4A; conditions: read-out: IC50 metal ion, KDM4A, cited from earlier work
[7] = target: T2, His6-AspH315-758 (AspH) (Homo sapiens, UniProt Q12797); test: Differential scanning fluorimetry (DSF) assay, shift of AspH melting temperature; format: binding; conditions: 20 μM inhibitor, 2 μM AspH, 50 μM NiCl2, with respect to DMSO controls, n = 2, mean ± SD; for ΔTm at 20 µM: read-out: Tm-shift (ΔTm) of AspH melting temperature [°C]
T2 construct: freshly thawed His6-AspH315-758 was added; made in house; host or cells: E. coli BL21 (DE3), pET-28a(+) vector
T2 sequence (Q12797 315-758): T1 sequence (Q12797 315-758)

[8] = 5 μM Fe(II), Ki values are shown
[9] = 50 nM AspH, 2.0 μM Fe(II), Zn(OAc)2, NiSO4, CoCl2, MnCl2, CaCl2 as metal sources, n = 2, mean ± SD, read-out: IC50 metal ion, AspH
[10] = LOPAC Plate 4, compound at 20 uM, substrate conversion
[11] = 50 nM His6-AspH315–758, 1.0 μM hFX-CP101–119, 3 μM 2OG, 2 μM Fe(II), 50 mM HEPES pH 7.5, 20 °C, mean ± SD, n = 2 (2,4-PDCA n = 10), read-out: IC50

O=S(=O)([O-])[O-].[Ni+2] [Ni(II), NiSO4]
IC50 [1]: 15.6 µM
Ki [2]: 4 ± 1 µM
IC50 [3]: 0.6 to 1 µM
IC50 ([4]; read-out: IC50 metal ion, AspH): 0.17 ± 0.08 µM
IC50 [5]: 185 µM
IC50 [6]: 9.4 µM

CC(=O)[O-].CC(=O)[O-].[Zn+2] [Zn(II), Zn(OAc)2]
IC50 ([1]; 2 μM KDM4 and 10 μM Fe(II)): 13 µM
Ki [2, 8]: 0.5 ± 0.1 µM
IC50 [4, 9]: ~0.05 µM and 0.05 µM
IC50 ([5]; 2 μM PHD2 and 20 μM Fe(II)): 9.3 µM
IC50 ([6]; 2 μM KDM4 and 10 μM Fe(II)): 7.8 µM

[Cl][Mn][Cl] [Mn(II), MnCl2]
IC50 ([1]; 2 μM KDM4 and 10 μM Fe(II)): 224 µM
Ki [2, 8]: 10 ± 1 µM
IC50 [4, 9]: 5.06 ± 1.02 µM
Reduction of AspH inhibition compared to Zn(II) ([4]; ratio of IC50 values against AspH, Table 2): approximately 100 fold
IC50 ([5]; 2 μM PHD2 and 20 μM Fe(II)): 21 µM
IC50 ([6]; 2 μM KDM4 and 10 μM Fe(II)): 101 µM

O=C(O)c1ccc(O)c2ncccc12 [IOX1]
Tm-shift (ΔTm) of AspH melting temperature [°C] [7]: 2.8 ± 0.2 °C and ~ 2.8 °C

CCOc1nc2cccc(C(=O)OC(C)OC(=O)OC3CCCCC3)c2n1Cc1ccc(-c2ccccc2-c2nnn[nH]2)cc1 (stereo not shown) [Candesartan cilexetil, reference compound]
Tm-shift (ΔTm) of AspH melting temperature [°C] [7]: < 0.3 °C
ΔTm at 20 µM [7]: 0.2 ± 0.1 °C
inhibition at 20 µM ([4]; AspH activity, fixed compound concentration 20 μM, initial LOPAC screen, 0.5%v/v DMSO, read-out: Inhibition at 20 µM [%]): 100%
% conversion [4, 10]: 2.30%

O=C(O)CNC(=O)C(=O)O [NOG, N-oxalylglycine, reference compound]
ΔTm at 20 µM [7]: 2.8 ± 0.3 °C
IC50 [4, 11]: 1.09 ± 0.29 µM

CoCl2 [Co(II)]
IC50 [1]: 9.4 µM
Ki [2]: 1 ± 0.4 µM
IC50 [3]: 1 to 3.5 µM
IC50 ([4]; read-out: IC50 metal ion, AspH): 0.39 ± 0.13 µM
IC50 [5]: 48.3 µM
IC50 [6]: 5.7 µM

O=C(O)c1ccnc(C(=O)O)c1 [2,4-PDCA, pyridine-2,4-dicarboxylic acid]
ΔTm at 20 µM [7]: 3.5 ± 0.6 °C

Cc1ccc(-n2sc3ccccc3c2=O)cc1 [PBIT, 2-(4-methylphenyl)-1,2-benzisothiazol-3(2 H)-one, reference compound]
Tm-shift (ΔTm) of AspH melting temperature [°C] [7]: -15.2 ± 1.4 °C and ~ −15.2 °C
IC50 [4, 11]: 0.14 ± 0.02 µM

O=[N+]([O-])c1cccc2cn[nH]c12 [7-Nitroindazole]
Plate 3 (% conversion) ([4]; LOPAC compound at 20uM): 35.80%

COc1ccc2cccc(CCNC(C)=O)c2c1 [Agomelatine]
Plate 3 (% conversion) ([4]; LOPAC compound at 20uM): 37.59%

CC1CNc2c(cccc2S(=O)(=O)N[C@@H](CCCNC(=N)N)C(=O)N2CC[C@@H](C)C[C@@H]2C(=O)O)C1 (stereo partly shown) [Argatroban monohydrate]
Plate 1 (% inhibition) ([4]; LOPAC compound at fixed 20 uM, plate 1, normalised to DMSO and 2,4-PDCA controls): -7.94%
Plate 1 (% conversion) ([4]; LOPAC compound at fixed 20 uM, substrate conversion, plate 1): 38.54%

CC[n+]1c(/C=C/C=C2/N(C)c3ccccc3C2(C)C)sc2ccccc21.[I-] [AC-93253 iodide]
Plate 2 (% conversion) [4]: 41.62%
Plate 2 (% inhibition) ([4]; LOPAC compound at 20uM, plate 2, normalised to DMSO and 2,4-PDCA controls): -16.93%

C[N+](C)(C)CCO.[Br-] [Choline bromide]
Plate 1 (% conversion) [4]: 37.78%
Plate 1 (% inhibition) [4]: -5.68%

N.N.N.N.N.N.N.N.N.N.N.N.N.N.[Cl-].[Cl-].[Cl-].[Cl-].[Cl-].[Cl-].[O-2].[O-2].[Ru+3].[Ru+3].[Ru+4] [Ruthenium red]
% inhibition ([4]; LOPAC Plate 4, compound at 20 uM): -14.56%
% conversion [4, 10]: 41.44%
